Substitutions are numbered along the chain they refer to.

The values that follow come from PMC9497135, “Structure-Based Study to Overcome Cross-Reactivity of Novel Androgen Receptor Inhibitors” (Cells, 2022).

The target of assay [1] is T1, AR (LNCaP cells, which carry the T878A AR mutation) (Homo sapiens, UniProt P10275, T878A).
T1 construct: LNCaP cells, which carry the T878A AR mutation; endogenous in cells; host or cells: LNCaP (LN-ARR2PB-eGFP)
T1 sequence (P10275 1-920 T878A): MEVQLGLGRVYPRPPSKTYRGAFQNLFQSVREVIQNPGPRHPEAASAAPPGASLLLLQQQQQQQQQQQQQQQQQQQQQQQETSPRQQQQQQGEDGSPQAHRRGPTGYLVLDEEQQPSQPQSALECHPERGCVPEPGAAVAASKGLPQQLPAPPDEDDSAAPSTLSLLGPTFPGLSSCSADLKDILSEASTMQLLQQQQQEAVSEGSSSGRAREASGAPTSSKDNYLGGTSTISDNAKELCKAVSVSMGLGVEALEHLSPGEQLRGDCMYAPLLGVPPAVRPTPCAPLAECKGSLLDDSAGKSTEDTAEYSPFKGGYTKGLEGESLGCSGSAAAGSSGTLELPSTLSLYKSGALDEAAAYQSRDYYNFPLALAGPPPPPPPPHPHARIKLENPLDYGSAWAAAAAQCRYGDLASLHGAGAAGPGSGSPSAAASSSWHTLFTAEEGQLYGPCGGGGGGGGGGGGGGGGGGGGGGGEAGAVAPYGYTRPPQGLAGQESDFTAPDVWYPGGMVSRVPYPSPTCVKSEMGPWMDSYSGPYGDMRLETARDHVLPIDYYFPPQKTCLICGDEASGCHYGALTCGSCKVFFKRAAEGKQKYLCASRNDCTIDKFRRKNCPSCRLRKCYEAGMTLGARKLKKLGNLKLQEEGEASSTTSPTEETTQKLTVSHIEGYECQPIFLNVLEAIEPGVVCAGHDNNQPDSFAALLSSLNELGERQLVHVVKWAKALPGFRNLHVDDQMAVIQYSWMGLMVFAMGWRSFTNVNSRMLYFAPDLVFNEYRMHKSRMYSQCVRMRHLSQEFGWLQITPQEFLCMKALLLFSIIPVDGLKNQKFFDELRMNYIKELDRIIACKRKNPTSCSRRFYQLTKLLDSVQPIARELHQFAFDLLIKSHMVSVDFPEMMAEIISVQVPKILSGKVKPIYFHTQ
Kind of assay: eGFP cellular AR transcription assay in LNCaP cells (LN-ARR2PB-eGFP). Type of assay: cell-based. As to conditions: for Anti-AR activity in eGFP assay: eGFP-expressing LNCaP cells; for Partial agonistic effect in eGFP assay: with R1881, high concentrations. The method, then: AR transcriptional activity was assayed as previously described. Briefly, LNCaP human prostate cancer cells (LN-ARR2PB-eGFP), stably transfected with eGFP reporter driven by an androgen responsive probasin-derived promoter (ARR2PB), were grown in phenol red free RPMI 1640 media supplemented with 5% charcoal stripped serum (CSS). After 5 days, the cells were plated into a 96-well plate (35,000 cells/well) with 0.1 nM of the synthetic androgen R1881 and increasing concentrations (0−100 μM) of test compounds. Fluorescence (excitation 485 nm, emission 535 nm) was measured after 3 days of incubation with the compounds.

Assay [2] concerns AR with T878A and W742C mutations. Also on record: method as in PMID 12517791. The settings on record: cited from earlier work.
Another assay deals with T2, Androgen Receptor ABS (Rattus norvegicus, UniProt P15207).
T2 construct: purchased
T2 sequence (P15207 647-902 limits assumed): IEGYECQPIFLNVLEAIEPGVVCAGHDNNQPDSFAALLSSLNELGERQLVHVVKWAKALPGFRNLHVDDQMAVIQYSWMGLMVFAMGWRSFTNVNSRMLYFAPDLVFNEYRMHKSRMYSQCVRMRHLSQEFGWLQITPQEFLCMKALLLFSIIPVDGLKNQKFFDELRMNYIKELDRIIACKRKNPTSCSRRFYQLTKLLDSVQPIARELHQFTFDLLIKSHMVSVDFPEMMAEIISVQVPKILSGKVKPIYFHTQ
Kind of assay: Androgen (DHT) displacement, Polar Screen Androgen Receptor Competitor Green Assay Kit. The settings on record: for Androgen displacement: at 50 µM; for Androgen Displacement (Yes/No): fluorescence polarization kit. Type of assay: binding. The procedure: Androgen displacement was assessed with the Polar Screen Androgen Receptor Competitor Green Assay Kit as per the instructions of the manufacturer.
Background: Fluorescence polarisation rises when a labelled molecule tumbles more slowly, as on binding a larger partner.

In a further assay the target is T3, T878A-AR mutant (Homo sapiens, UniProt P10275, T878A).
T3 construct: Full-length human wild type AR was cloned into pcDNA3.1 expression plasmid; expressed in transfected cells; host or cells: PC3
T3 sequence (P10275 1-920 T878A): T1 sequence (P10275 1-920 T878A)
The assay is described as follows: Luciferase reporter assay, PC3 cells transfected with T878A-AR. The class given is cell-based. The settings on record: T878A-AR, high concentrations, absence of R1881. The procedure: Full-length human wild type AR was cloned into pcDNA3.1 expression plasmid (Invitrogen, Waltham, MA, USA) with a CMV promoter. The T878A mutant (T878A-AR) was generated with the Quikchange Mutagenesis Kit (Stratagene, San Diego, CA, USA) using hARWT plasmid as a template. Androgen-starved PC3 cells were seeded in 96-well plates (3000 cells/well) in RPMI 1640 + 5% CSS for 24 h followed by transfection with 50 ng of hARWT or hART878A along with 50 ng of ARR3tk-luciferase reporter construct (100 ng total plasmid DNA) and 0.3 µL/well TransIT20/20 transfection reagent (TT2020, Mirus, Madison, Wisconsin, WI, USA) for 48 h. […] Cell lysis was carried out with 60 µL 1X passive lysis buffer/well (Promega, Madison, Wisconsin, WI, USA). The luminescence from 20 µL of cell lysate and 50 µL of Luciferase assay reagent (Promega, Madison, Wisconsin, WI, USA) was recorded on a TECAN M200pro plate reader.

In the next assay the target is T4, wild type AR LBD (Homo sapiens, UniProt P10275).
T4 construct: made in house; host or cells: E. coli BL21-DE3 co-transformed with pBirACm
T4 sequence (P10275 669-900 limits assumed): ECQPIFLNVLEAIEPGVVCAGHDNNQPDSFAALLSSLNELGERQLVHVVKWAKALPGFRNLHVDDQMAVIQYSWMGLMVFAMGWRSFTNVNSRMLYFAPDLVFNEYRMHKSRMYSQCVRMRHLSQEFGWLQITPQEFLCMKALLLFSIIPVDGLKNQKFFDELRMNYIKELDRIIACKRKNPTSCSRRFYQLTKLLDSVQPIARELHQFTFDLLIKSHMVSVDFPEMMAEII
Kind of assay: Biolayer interferometry (BLI), wild type LBD. The class given is binding. The method, then: (§1) The direct reversible interaction between small molecules and the AR was quantified by BLI using OctetRED (ForteBio, Fremont, CA, USA). The wild type and T878A-LDB in fusion with an N-terminal (His)6-avidin ([…]) tag were expressed in E. coli BL21-DE3 cells co-transformed with pBirACm plasmid (Avidity), which expresses a biotin ligase leading to the biotynilation of the avidin tag on the LBD. Cells were grown in LB media at 37 °C to an OD600nm = 0.5 and then induced with 0.5 mM isopropyl-β-D-thiogalactoside. A measure of 20 µM of dihydrotestosterone (DHT) and 0.15 mM biotin were added and the cells were incubated at 16 °C for 18 to 20 h. Cells were then resuspended and lysed in buffer containing 500 mM Li2SO4, 50mM HEPES pH7.2, 10% Glycerol, 0.1% Octyl-beta-Glucoside, 20 µM of DHT, 5 mM β-mercaptoethanol, 10 mM imidazole and 0.1 mM phenylmethanesulfonyl fluoride. […] After an overnight dialysis against 150 mM Li2SO4, 50 mM HEPES pH7.2, 10% Glycerol, 0.1% Octyl-beta-Glucoside, 20 µM of DHT and 0.2 mM tris(2-carboxyethyl)phosphine, purified proteins at 50 µg/mL were bound to the super-streptavidin sensors overnight at 4 °C. The assay was performed at 20 °C in the dialysis buffer supplemented with 5% dimethyl sulfoxide (DMSO) which was also used as our reference measurement.
Background: Biolayer interferometry detects binding as a change in optical thickness at a sensor tip.

In another assay the target is T5, T878A AR LBD (Homo sapiens, UniProt P10275, T878A).
T5 construct: made in house; host or cells: E. coli BL21-DE3 co-transformed with pBirACm
T5 sequence (P10275 669-900 T878A limits assumed): T4 sequence (P10275 669-900 limits assumed) with T210A
The assay is described as follows: Biolayer interferometry (BLI), T878A LBD. Type of assay: binding. The method, then:
as §1

Setting [3] is: LNCaP eGFP reporter (ARR2PB promoter), 0.1 nM R1881, 3 days.

Consider `c1sc(N2CCOCC2)nc1C1CCCCC1` [VPC14406], for which, in assay [1] (setting [3]), the “Reporter eGFP IC50” value was “inactive”. The “Anti-AR activity in eGFP assay” value in assay [1] is reported as “lost their anti-AR activity”.
As for `c1sc(N2CCOCC2)nc1C1CCCC1` [VPC14403], the “Reporter eGFP IC50” value in assay [1] (setting [3]) was “inactive”. Besides, in assay [1], the “Anti-AR activity in eGFP assay” value was “lost their anti-AR activity”.
Regarding `C[C@](O)(CS(=O)(=O)c1ccc(F)cc1)C(=O)Nc1ccc(C#N)c(C(F)(F)F)c1` [R-bicalutamide], the “Agonist behaviour on mutated AR” value in assay [2] is reported as “acts as an agonist only when the T878A mutation is also coupled with W742C”.
Take `c1cncc(-c2csc(N3CCOCC3)n2)c1` [VPC14439]: the “Concentration above which partial agonism is seen in the eGFP assay” value in assay [1] (LNCaP, 0.1 nM R1881) was “above 3 µM”. For the same compound, on Androgen Receptor ABS, the Androgen displacement was 30% and the “Androgen Displacement (Yes/No)” value is “Yes”.
With `c1ccc(-c2csc(N3CCOCC3)n2)nc1` [VPC14436], the “Androgen Displacement (Yes/No)” value at Androgen Receptor ABS was “No”.
Take `c1cc2c(cc1-c1csc(N3CCOCC3)n1)CCCC2` [VPC14291]: the “Reporter eGFP IC50” value in assay [1] (setting [3]) was “inactive”. Moreover, the “Anti-AR activity in eGFP assay” value in assay [1] was “lost their anti-AR activity”.
In the case of `Brc1ncn(-c2csc(N3CCOCC3)n2)c1Br` [VPC14449], in assay [1] (setting [3]), the IC50 turned out to be 150 ± 40 nM. The “Partial agonistic effect in eGFP assay” value in assay [1] (LNCaP) is given as “no undesired partial agonistic effects were observed”. The “Anti-AR activity in eGFP assay” value in assay [1] was “maintained good potency”. The “Reduction of AR stimulation in comparison with VPC14368” value at T878A-AR mutant was ~ 80%. For the same compound, on wild type AR LBD, the “Direct binding to wild-type LBD by BLI” value was “not binding”. For the same compound, the “Direct binding to T878A LBD by BLI” value on T878A AR LBD is given as “not binding”. Also, the Androgen displacement at Androgen Receptor ABS and at Androgen Receptor ABS (listed as 14449) was under 10% in each case.
For `c1cc(-c2csc(N3CCOCC3)n2)ccn1` [VPC14435], the “Partial agonistic effect in eGFP assay” value in assay [1] (LNCaP) was “no undesired partial agonistic effects were observed”. In addition, the “Anti-AR activity in eGFP assay” value in assay [1] is reported as “maintained good potency”. Further, at Androgen Receptor ABS, the “Androgen Displacement (Yes/No)” value is “No”.
With `c1cc(-c2csc(N3CCOCC3)n2)cs1` [VPC14404], the “Partial agonistic effect in eGFP assay” value in assay [1] (LNCaP) is on record as “no undesired partial agonistic effects were observed”. In addition, the “Anti-AR activity in eGFP assay” value in assay [1] is “maintained good potency”. At Androgen Receptor ABS, the Androgen displacement is reported as under 10%.

By IC50 is commonly meant the midpoint of a concentration-inhibition curve.
